Key:
[1] = target: T1, human bradykinin 1 receptor (B1R) (Homo sapiens, UniProt P46663); experiment: Functional investigation on the human bradykinin 1 receptor (B1R), Ca2+ FLIPR assay in CHO K1 hB1R cells; format: cell-based; conditions: B1R antagonism human; test substance 10 μM; Ca2+ FLIPR, CHO K1 hB1R cells
T1 construct: expressed in transfected cells; host or cells: CHO K1 cells
T1 sequence (P46663 1-353): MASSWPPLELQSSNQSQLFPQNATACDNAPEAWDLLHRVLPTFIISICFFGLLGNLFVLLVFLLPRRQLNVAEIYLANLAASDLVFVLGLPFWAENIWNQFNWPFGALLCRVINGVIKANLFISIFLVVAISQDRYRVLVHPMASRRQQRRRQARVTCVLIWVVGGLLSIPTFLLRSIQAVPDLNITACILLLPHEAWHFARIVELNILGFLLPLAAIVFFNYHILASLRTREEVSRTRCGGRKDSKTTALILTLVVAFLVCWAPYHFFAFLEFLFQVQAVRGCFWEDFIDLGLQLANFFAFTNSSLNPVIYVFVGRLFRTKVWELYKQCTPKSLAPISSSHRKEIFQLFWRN
In short: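 Peak Ca2+-dependent fluorescence in B1R-transfected CHO K1 cells measures antagonism of an EC80 agonist challenge given 10-20 min after compound. Agonist is Lys-Des-Arg9-bradykinin for human, Des-Arg9-bradykinin for rat receptor.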

[2] = target: T2, serotonin (5-HT) reuptake (Rattus norvegicus, UniProt P31652); experiment: Inhibition of serotonin (5HT) reuptake in synaptosomes from rat brain; format: biochemical; conditions: test concentration of 10 μM
T2 construct: synaptosomes are freshly isolated from areas of the rat brain; from tissue; host or cells: rat brain synaptosomes (P2 fraction)
In short: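 Compounds screened at 10 μM and reported as percent inhibition of serotonin uptake. Uptake measured in a freshly prepared P2 synaptosomal fraction from rat brain.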

T2 sequence (P31652 whole entry): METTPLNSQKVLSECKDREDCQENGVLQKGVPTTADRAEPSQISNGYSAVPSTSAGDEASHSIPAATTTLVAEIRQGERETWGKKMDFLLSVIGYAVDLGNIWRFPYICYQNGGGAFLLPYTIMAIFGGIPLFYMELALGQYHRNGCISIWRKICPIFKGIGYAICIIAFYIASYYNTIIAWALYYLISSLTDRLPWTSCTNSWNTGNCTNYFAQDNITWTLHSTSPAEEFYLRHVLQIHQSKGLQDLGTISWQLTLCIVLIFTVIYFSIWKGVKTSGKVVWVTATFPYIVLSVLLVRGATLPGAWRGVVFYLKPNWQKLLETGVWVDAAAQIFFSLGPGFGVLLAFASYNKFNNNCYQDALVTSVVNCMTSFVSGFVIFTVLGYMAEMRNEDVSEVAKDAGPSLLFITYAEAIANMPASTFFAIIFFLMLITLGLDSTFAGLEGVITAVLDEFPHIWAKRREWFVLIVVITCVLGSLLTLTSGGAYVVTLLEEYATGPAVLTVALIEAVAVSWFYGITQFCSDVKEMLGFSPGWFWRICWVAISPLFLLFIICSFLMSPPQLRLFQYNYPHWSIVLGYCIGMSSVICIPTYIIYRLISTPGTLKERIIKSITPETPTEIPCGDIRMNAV

Row | SMILES | B1R Ant. h [10 μM] % Inhibition [1] [%] | 5-HT (inhibition of reuptake of serotonin, % inhibition) [2] [%]
1 | CN(C)C(c1cccc(F)c1)C1CCC(NC(=O)COC2CCN(S(=O)(=O)c3ccccc3)CC2)CC1 (stereo not shown) [Example 335] | −8 | 93
2 | CN(C)C(c1cccc(F)c1)C1CCC(CNC(=O)COC2CCCN(S(=O)(=O)c3ccccc3)C2)CC1 (stereo not shown) [Example 309] | −4 | 94
3 | COc1ccc(S(=O)(=O)N2CCCCC2COCC(=O)NCC2CCC(C(c3ccc(F)cc3)N(C)C)CC2)cc1 (stereo not shown) [Example 345] | 76 | 92
4 | CN(C)C(c1cccc(F)c1)C1CCC(CCNC(=O)COCCN(Cc2ccccc2)S(=O)(=O)c2ccccc2)CC1 (stereo not shown) [Example 278] | 16 | 98
5 | COc1ccc(S(=O)(=O)N2CCCCC2COCC(=O)NCC2CCC(C(c3ccc(Cl)cc3)N(C)C)CC2)c(OC)c1 (stereo not shown) [Example 280] | 51 | 78
6 | CN(C)C(c1ccc(F)cc1)C1CCC(NC(=O)COC2CCN(S(=O)(=O)c3ccc(Cl)cc3Cl)C2)CC1 (stereo not shown) [Example 290] | 37 | 89
7 | CN(C)C(c1cccc(F)c1)C1CCC(CNC(=O)COCCN(Cc2ccccc2)S(=O)(=O)c2ccccc2)CC1 (stereo not shown) [Example 296] | −1 | 96
8 | CN(C)C(c1cccc(F)c1)C1CCC(CNC(=O)COCCN(C)S(=O)(=O)c2ccc(OC(F)(F)F)cc2)CC1 (stereo not shown) [Example 303] | −19 | 83
9 | COc1ccc(S(=O)(=O)N2CCCCC2COCC(=O)NC2CCC(C(c3cccc(F)c3)N(C)C)CC2)c(OC)c1 (stereo not shown) [Example 322] | −14 | 78
10 | CN(C)C(c1ccc(Cl)cc1)C1CCC(CNC(=O)COC2CCN(S(=O)(=O)c3cccc(C(F)(F)F)c3)C2)CC1 (stereo not shown) [Example 331] | 30 | 84
11 | COc1ccc(S(=O)(=O)N2CCCCC2CCOCC(=O)NCC2CCC(C(c3ccc(F)cc3)N(C)C)CC2)cc1 (stereo not shown) [Example 350] | 57 | 92
12 | CN(C)C(c1ccc(F)cc1)C1CCC(CNC(=O)COCCN(Cc2ccccc2)S(=O)(=O)c2ccccc2)CC1 (stereo not shown) [Example 342] | 28 | 94
13 | COc1cc(C)c(S(=O)(=O)N2CCC(OCC(=O)NCCC3CCC(C(c4cccc(F)c4)N(C)C)CC3)C2)c(C)c1 (stereo not shown) [Example 307] | 105 | 97
14 | CN(C)C(c1ccc(F)cc1)C1CCC(NC(=O)COCCN(Cc2ccccc2)S(=O)(=O)c2ccccc2)CC1 (stereo not shown) [Example 336] | 20 | 96
15 | CN(C)C(c1ccc(F)cc1)C1CCC(CNC(=O)COCCN(C)S(=O)(=O)c2c(Cl)cccc2Cl)CC1 (stereo not shown) [Example 334] | 103 | 83
16 | CN(C)C(c1ccc(Cl)cc1)C1CCC(CNC(=O)COCCN(C)S(=O)(=O)c2c(Cl)cc(Cl)cc2Cl)CC1 (stereo not shown) [Example 318] | 104 | 91
17 | COc1ccc(S(=O)(=O)N(C)CCOCC(=O)NCCC2CCC(C(c3cccc(F)c3)N(C)C)CC2)cc1OC (stereo not shown) [Example 293] | −7 | 95
18 | CN(C)C(c1cccc(F)c1)C1CCC(CNC(=O)COC2CCN(S(=O)(=O)c3ccccc3)C2)CC1 (stereo not shown) [Example 355] | −7 | 102
19 | CN(C)C(c1ccc(Cl)cc1)C1CCC(CCNC(=O)COCCN(C)S(=O)(=O)c2ccc(Cl)cc2Cl)CC1 (stereo not shown) [Example 291] | 105 | 81

Row | SMILES | B1R Ant. h [10 μM] % Inhibition [1] [%] | 5-HT (inhibition of reuptake of serotonin, % inhibition) [2] [%]
20 | COc1ccc(S(=O)(=O)N2Cc3ccccc3CC2COCC(=O)NCC2CCC(C(c3ccc(F)cc3)N(C)C)CC2)cc1 (stereo not shown) [Example 288] | 62 | 94
21 | COc1ccc(S(=O)(=O)N2CCCC2COCC(=O)NCCC2CCC(C(c3ccc(Cl)cc3)N(C)C)CC2)cc1 (stereo not shown) [Example 346] | 52 | 95
22 | CN(C)C(c1ccc(Cl)cc1)C1CCC(CNC(=O)COC2CCN(S(=O)(=O)c3ccccc3)C2)CC1 (stereo not shown) [Example 299] | −15 | 103
23 | CN(C)C(c1cccc(F)c1)C1CCC(CNC(=O)COCCC2CCN(S(=O)(=O)c3ccccc3)CC2)CC1 (stereo not shown) [Example 333] | 17 | 84
24 | COc1ccc(S(=O)(=O)N2CCCCC2CCOCC(=O)NCC2CCC(C(c3ccc(Cl)cc3)N(C)C)CC2)cc1 (stereo not shown) [Example 312] | 71 | 89
25 | CN(C)C(c1cccc(F)c1)C1CCC(CCNC(=O)COC2CCCN(S(=O)(=O)c3ccccc3)C2)CC1 (stereo not shown) [Example 326] | −5 | 97
26 | CCN(CCOCC(=O)NCC1CCC(C(c2ccc(F)cc2)N(C)C)CC1)S(=O)(=O)c1c(C)cc(OC)c(C)c1C (stereo not shown) [Example 327] | 101 | 90
27 | CN(C)C(c1cccc(F)c1)C1CCC(NC(=O)COCCN(C)S(=O)(=O)c2cccc(C(F)(F)F)c2)CC1 (stereo not shown) [Example 297] | 15 | 86
28 | COc1ccc(S(=O)(=O)N(C)CCOCC(=O)NCCC2CCC(C(c3ccc(Cl)cc3)N(C)C)CC2)cc1OC (stereo not shown) [Example 339] | −9 | 78
29 | Cc1ccc(S(=O)(=O)N(C)CCOCC(=O)NCC2CCC(C(c3ccc(F)cc3)N(C)C)CC2)cc1 (stereo not shown) [Example 362] | 7 | 105
30 | CN(C)C(c1cccc(F)c1)C1CCC(CCNC(=O)COCC2CCCN(S(=O)(=O)c3ccccc3)C2)CC1 (stereo not shown) [Example 295] | 7 | 99
31 | CN(C)C(c1cccc(F)c1)C1CCC(NC(=O)COC2CCN(S(=O)(=O)c3ccc(Cl)cc3Cl)C2)CC1 (stereo not shown) [Example 283] | 50 | 91
32 | Cc1ccc(S(=O)(=O)N(C)CCOCC(=O)NCCC2CCC(C(c3ccc(Cl)cc3)N(C)C)CC2)cc1 (stereo not shown) [Example 306] | 38 | 91
33 | CN(C)C(c1ccc(F)cc1)C1CCC(CNC(=O)COC2CCCCC2N(C)S(=O)(=O)c2ccc(Cl)c(Cl)c2)CC1 (stereo not shown) [Example 359] | 42 | 90
34 | COc1cc(C)c(S(=O)(=O)N2CCN(CCOCC(=O)NCCC3CCC(C(c4ccc(Cl)cc4)N(C)C)CC3)CC2)c(C)c1C (stereo not shown) [Example 320] | 73 | 98
35 | CN(C)C(c1cccc(F)c1)C1CCC(CCNC(=O)COCCN2CCN(S(=O)(=O)c3ccccc3)CC2)CC1 (stereo not shown) [Example 325] | 45 | 96
36 | CN(C)C(c1cccc(F)c1)C1CCC(CNC(=O)COCCN2CCN(S(=O)(=O)c3ccccc3)CC2)CC1 (stereo not shown) [Example 308] | −1 | 93
37 | COc1cc(C)c(S(=O)(=O)N(CCOCC(=O)NCCC2CCC(C(c3cccc(F)c3)N(C)C)CC2)Cc2ccccc2)c(C)c1 (stereo not shown) [Example 358] | 66 | 92
38 | COc1cc(C)c(S(=O)(=O)N2CCC(OCC(=O)NC3CCC(C(c4cccc(F)c4)N(C)C)CC3)CC2)c(C)c1C (stereo not shown) [Example 286] | 37 | 92

Source: patent publication US8106055B2, “Substituted amide compounds” (Gruenenthal GmbH, priority 2007, dated 2012)
